Assay results: patent publication US20240268372A1, “Methods and Compositions for Extending Organ and Tissue Preservation” (The General Hospital Corporation, priority 2021, published 2024)
Where “and” joins values, the source holds several entries; their conditions need not be identical. Identical values can stand only once.

Legend:
whole rat livers [1] = test: Optimized partial freezing of whole rat livers: ex vivo simulated transplantation (normothermic reperfusion with whole blood)
Protocol: (§1) Within this standardized protocol, we first compared GLY, EG, and PG as main permeating CPA using a freezing temperature of −10° C. and storage duration of 1 day (FIG. 37). Using PG as the CPA, we subsequently tested the effect of freezing temperature (−10° C. vs −15° C.) and storage duration (1 day vs 5 days) on liver viability after partial freezing using the same protocol (FIG. 38).
The Affinity Pixie Oxygenator is a clinical grade oxygenator that has graduated fiber bundle density technology and radial flow path that is designed to create a more uniform blood flow, enhance gas transfer, reduce pressure drops, and decrease prime volume. Moreover, it also contains a Balance® Biosurface that contains a hydrophilic polymer coating to reduce platelet adhesion and activation. This adaptation to the oxygenator is essential since recirculating whole blood during simulated transplantation may trigger coagulation and inflammatory events that are not representative of in vivo events and could skew observed outcomes.
(§2) Machine perfusion system: The perfusion system provides a continuous perfusion through the portal vein that is pressure, flow, and temperature controlled. The perfusates can be either recirculated or flushed with a single pass though the liver and perfusates can be changed without interrupting perfusion. The setup and operation of the perfusion system is described in detail elsewhere (see, e.g., ref. 15). There were two oxygenators used in this study, including the Radnoti (Cat #130144) and Affinity Pixie Oxygenator (Cat #BBP241). Due to the flexibility and low cost of the Radnoti oxygenator, it was first used for initial optimization and characterization studies, including determining the effect of permeating CPAs (GLY vs EG vs PG; FIG. 37), temperature (−10 vs −15° C., FIG. 38) storage duration (1 vs 5 days, FIG. 38), and warm ischemic injury.
Preconditioning during SNMP: Directly after procurement the livers were perfused with 250 ml of SNMP preloading solution (see Table 7 for composition of all solutions). The perfusion temperature was set at 21° C. and perfusion was initiated at 5 ml/min. […] Next, the livers were perfused for 30 additional minutes to allow for cellular uptake of 3-O-methyl-D-glucose (3-OMG).
Preloading of CPAs during HMP: The SNMP preloading solution was gradually switched to HMP preloading solution in […] increments, each with 10% decreasing and 10% increasing volumetric fractions of SNMP and HMP preloading solution, respectively. During this switch, the perfusion temperature was lowered to 4° C., and flows were adjusted to a maximum perfusion pressure of 3 mmHg. Dependent on the flowrate, the solution switch took 10-15 minutes. The HMP preloading was continued for 30 additional minutes to ensure complete equilibration of the solution throughout the peripheral liver tissue.
This was done in 10 fractions of 10 ml, each with 10% decreasing and 10% increasing volumetric fractions of HMP preloading solution and storage solution, respectively. During this switch, the perfusion temperature was maintained at 4° C., and the flowrates were lowered to ensure a maximum perfusion pressure of 3 mmHg. The final 15 ml fraction of 100% storage solution was loaded at a fixed flowrate of 0.5 ml/min.
Partial freezing: After loading of the storage solution, the liver was placed in a bag with 50 ml fresh storage solution and suspended in a pre-cooled chiller (Engel, Schwertberg, Austria). Depending on the experimental condition the chiller temperature was pre-cooled to −10° C. or −15° C. and the liver stored for […] 5 days.

whole rat livers [2] = test: Optimized partial freezing of whole rat livers: SNMP recovery after freezing; conditions: −15° C., 5 days; at 3 h
Protocol: as §1
as §2, with “injury. Once the major aspects of the protocol were optimized and characterized, we used the clinical grade Affinity Pixie Oxygenator. […]” for “injury.”

[3] = clinical grade oxygenator, −15° C., 1 day
[4] = clinical grade oxygenator, −15° C., 1 day, at 2 h
[5] = clinical grade oxygenator, −15° C., 5 day
[6] = clinical grade oxygenator, −15° C., 5 day, at 2 h
[7] = −10° C., 1 day, at 2 h of simulated transplantation

**Q.** Which results are given for `CC(O)CO` (stereo not shown) [PG, propylene glycol]?
**A.** lactate (whole rat livers [1]; 30 minutes warm ischemia prior to freezing at −10° C. for 1 day, at 2 h of simulated transplantation): 6.37 ± 1.09 mM; HSP70 in perfusate (whole rat livers [1]; clinical grade oxygenator, 1 day frozen vs Clinical Oxy. Controls): increase; TNFα levels in perfusate (whole rat livers [1]; clinical grade oxygenator, across all groups): no changes; 8OHdG in perfusate (whole rat livers [1]; clinical grade oxygenator, frozen livers versus controls): significantly lower; maximum ALT (whole rat livers [1]; [3]): 722.00±155.74 U/L; maximum AST (whole rat livers [1]; [3]): 958.67±278.50 U/L; potassium level at end of simulated transplantation (whole rat livers [1]; [3]): 5.23 ± 0.252 mM; bile production (whole rat livers [1]; [4]): 0.67 ± 0.92 µL/g; liver weight gain during simulated transplantation (whole rat livers [1]; [4]): 12.00±8.66%; vascular resistance (whole rat livers [1]; [4]): 0.004±0.002 mmHg*min*mL-i*g^−1; maximum ALT (whole rat livers [1]; [5]): 886.67±241.80 U/L; maximum AST (whole rat livers [1]; [5]): 1190.33±117.35 U/L; potassium level at end of simulated transplantation (whole rat livers [1]; [5]): 5.167 ± 0.404 mM; bile production (whole rat livers [1]; [6]): 2.92 ± 3.74 µL/g; vascular resistance (whole rat livers [1]; [6]): 0.007±0.010 mmHg*min*mL-i*g^−1; tissue adenylate energy charge (whole rat livers [1]; clinical grade oxygenator, −15° C., 5 days): 0.131±0.031; liver weight gain during simulated transplantation (whole rat livers [1]; clinical grade oxygenator, −15° C., 5 days, at 2 h): 26.00±15.13%; microscopic tissue structure (whole rat livers [1]; −10° C. and −15° C., 1 day): some disruption of the lobular architecture with intact portal triads and hepatocyte swelling; bile production during simulated transplantation (whole rat livers [1]; −10° C., 1 day): did produce bile; lactate clearance after first hour of simulated transplantation (whole rat livers [1]; −10° C., 1 day): cleared lactate; microscopic tissue structure (H&E, blinded pathologist) (whole rat livers [1]; −10° C., 1 day): favorable to modest results; AST levels (whole rat livers [1]; −10° C., 1 day, at 1 h): 567±172 U/L; oxygen uptake during simulated transplantation (whole rat livers [1]; −10° C., 1 day, at 1 h): 36.9 ± 2.34 µL O2/min/g; oxygen uptake during simulated transplantation (whole rat livers [1]; −10° C., 1 day, at 2 h): 38.2 ± 3.66 µL O2/min/g; vascular resistance during simulated transplantation (whole rat livers [1]; −10° C., 1 day, at 2 h): 0.019±0.011 mmHg*min*mL^−1*g^−1; weight gain during simulated transplantation (whole rat livers [1]; −10° C., 1 day, at 2 h): 4.00±9.20%; AST levels (whole rat livers [1]; [7]): 979±520 U/L and 979±521 U/L; portal lactate concentration (whole rat livers [1]; [7]): 2.95 ± 1.73 mM; total cumulative bile volume (whole rat livers [1]; [7]): 3.56 ± 4.02 µL/g; lactate clearance during simulated transplantation (whole rat livers [1]; −15° C., 1 and 5 days): no lactate clearance was observed; bile production during simulated transplantation (whole rat livers [1]; −15° C., 1 day): 6.11 ± 4.69 µL/g; tissue adenylate energy charge (whole rat livers [1]; −15° C., 1 day): 0.061±0.019; AST levels (whole rat livers [1]; −15° C., 1 day, at 1 h): 1283±224 U/L; oxygen uptake during simulated transplantation (whole rat livers [1]; −15° C., 1 day, at 1 h): 23.5 ± 4.68 µL O2/min/g; AST levels (whole rat livers [1]; −15° C., 1 day, at 2 h): 1995±530 U/L; lactate level at end of simulated transplantation (whole rat livers [1]; −15° C., 1 day, at 2 h): 5.21 ± 2.67 mM; maximum ALT (whole rat livers [1]; −15° C., 1 day, at 2 h): 2335±597 U/L; maximum potassium (whole rat livers [1]; −15° C., 1 day, at 2 h): 5.05 ± 0.48 mM; oxygen uptake during simulated transplantation (whole rat livers [1]; −15° C., 1 day, at 2 h): 24.9 ± 2.38 µL O2/min/g; vascular resistance during simulated transplantation (whole rat livers [1]; −15° C., 1 day, at 2 h): 0.021±0.010 mmHg*min*mL^−1*g^−1 and 0.011±0.004 mmHg*min*mL^−1*g^−1; bile production during simulated transplantation (whole rat livers [1]; −15° C., 5 days): 3.32 ± 2.43 µL/g; microscopic tissue structure (whole rat livers [1]; −15° C., 5 days): moderate to marked loss of LSECs; tissue adenylate energy charge (whole rat livers [1]; −15° C., 5 days): 0.062±0.029; lactate level at end of simulated transplantation (whole rat livers [1]; −15° C., 5 days, at 2 h): 5.73 ± 1.29 mM; maximum ALT (whole rat livers [1]; −15° C., 5 days, at 2 h): 2316±242 U/L; maximum potassium (whole rat livers [1]; −15° C., 5 days, at 2 h): 4.95 ± 0.48 mM; oxygen uptake during simulated transplantation (whole rat livers [1]; −15° C., 5 days, at 2 h): 25.4 ± 9.78 µL O2/min/g; vascular resistance during simulated transplantation (whole rat livers [1]; −15° C., 5 days, at 2 h): 0.021±0.021 mmHg*min*mL^−1*g^−1; weight gain during simulated transplantation (whole rat livers [1]; −15° C., 5 days, at 2 h): 30.25±5.56%; weight gain during SNMP recovery after freezing (whole rat livers [2]): 40.00±4.32%

**Q.** Which results are given for `OCCO` [EG, ethylene glycol]?
**A.** bile production during simulated transplantation (whole rat livers [1]; −10° C., 1 day): did not produce bile; lactate clearance after first hour of simulated transplantation (whole rat livers [1]; −10° C., 1 day): not observed; microscopic tissue structure (H&E, blinded pathologist) (whole rat livers [1]; −10° C., 1 day): favorable to modest results; oxygen uptake during simulated transplantation (whole rat livers [1]; −10° C., 1 day, at 2 h): 21.4 ± 5.8 µL O2/min/g; tissue adenylate energy charge (whole rat livers [1]; −10° C., 1 day, at 2 h): 0.088±0.065; weight gain during simulated transplantation (whole rat livers [1]; −10° C., 1 day, at 2 h): 2.50±5.26%; AST levels (whole rat livers [1]; [7]): 967±330 U/L; portal lactate concentration (whole rat livers [1]; [7]): 6.68 ± 1.71 mM
